According to patent publication US20250046404A1, “SYSTEMS AND METHODS RELATING TO A MACHINE LEARNING PREDICTION MODEL FOR PREDICTING MOLECULAR TARGETS OF SMALL MOLECULES” (KBR WYLE SERVICES, LLC, priority 2023, published 2025):

Columns and labels:
miR-451 [1] = experiment: Zebrafish embryo erythrocyte accumulation with PTU, O-dianisidine hemoglobin stain; format: in vivo; conditions: for hemoglobinized cells / blood accumulation (O-dianisidine staining): 2-day-old embryos, lateral view, tail region, upon drug treatment
Protocol: Zebrafish embryos were incubated with different drug candidates predicted by sChemNET in combination with phenyl-thiourea (PTU), a chemical known to induce anemia due to oxidative stress when miR-451 activity is impaired, but not in wild-type embryos. 48 hours after fertilization, embryos display robust blood circulation. At this stage, the accumulation of mature erythrocytes can be easily assessed in transparent embryos using O-dianisidine, a hemoglobin-specific stain. Drugs impairing miR-451 activity induce anemia, while miR-451 boosting drugs will increase erythrocyte production (blood circulation).
Ventral images of 2-day-old embryos stained with O-dianisidine reveal hemoglobinized cells (brown staining).) for wild-type embryos and those treated with docetaxel, β-elemene and α-calcidol. Blood accumulated in the ventral region (ducts of Cuvier).

miR-144 = experiment: Effect on levels of miR-144; format: in vivo, Zebrafish; conditions: erythrocyte specific miR-144
From the text: (§1) Either mechanism of action may be valid, as both pathways will allow the desired output, which complements miRNA activity.
(§2) Dicer processes miR-144, but at the same time is a target of miR-144 (PMID: 32191872), effectively canceling a potential drug-induced increase in miR-144 output.

miR-451 [2] = experiment: Effect on levels of miR-451; conditions: zebrafish, in vivo
From the text: as §1, §2

With `CC(=O)O[C@@]12CO[C@@H]1C[C@H](O)[C@@]1(C)C(=O)[C@H](O)C3=C(C)[C@@H](OC(=O)[C@H](O)[C@@H](NC(=O)OC(C)(C)C)c4ccccc4)C[C@@](O)([C@@H](OC(=O)c4ccccc4)[C@H]21)C3(C)C` [docetaxel] the “hemoglobinized cells / blood accumulation (O-dianisidine staining)” value (miR-451 [1]) was “accumulation of the excess of blood in the tail region”.
`C=C1/C(=C\C=C2/CCC[C@]3(C)[C@@H]([C@H](C)CCCC(C)C)CC[C@@H]23)C[C@@H](O)C[C@@H]1O` [α-Calcidol] was tested, and the “hemoglobinized cells / blood accumulation (O-dianisidine staining)” value (miR-451 [1]) was “accumulation of the excess of blood in the tail region”, the blood production (miR-451 [1]; zebrafish, in vivo) was “boosts blood production” and the “levels of miR-144 (cluster partner of miR-451)” value (miR-144) was “does not directly affect the levels”. For the same molecule, the “levels of miR-451” value (miR-451 [2]) was “does not directly affect the levels”.
With `C=C[C@]1(C)CC[C@@H](C(=C)C)C[C@H]1C(=C)C` [β-elemene] the “hemoglobinized cells / blood accumulation (O-dianisidine staining)” value (miR-451 [1]) was “accumulation of the excess of blood in the tail region”.
